Experimental data taken from ChEMBL document CHEMBL1201862, “PubChem BioAssay data set” (2004).
Each block holds one compound with its values, some of them ahead of it. Calls of active or inactive are those of the source.

Legend:
HEK293 [1] = test: NOD2 signaling inhibitors in MDP-stimulated cells, cell-based, uHTS, luminescence (AID 2001); assay type: functional; conditions: Homo sapiens
[2] = non-specific 3'UTR reporter inhibition in Clone20-Shn3RL – cell-based, Renilla luciferase, cherry-picked, counter-screen for Shn3 inhibitor project, dose response (AID 624133); assay type: functional
[3] = target: T1, Nucleotide-binding oligomerization domain-containing protein 1 (Homo sapiens, UniProt Q9Y239); test: blockers of NOD1 pathway activity – revised, SAR follow-up (AID 2333); assay type: functional
T1 sequence (Q9Y239 whole entry): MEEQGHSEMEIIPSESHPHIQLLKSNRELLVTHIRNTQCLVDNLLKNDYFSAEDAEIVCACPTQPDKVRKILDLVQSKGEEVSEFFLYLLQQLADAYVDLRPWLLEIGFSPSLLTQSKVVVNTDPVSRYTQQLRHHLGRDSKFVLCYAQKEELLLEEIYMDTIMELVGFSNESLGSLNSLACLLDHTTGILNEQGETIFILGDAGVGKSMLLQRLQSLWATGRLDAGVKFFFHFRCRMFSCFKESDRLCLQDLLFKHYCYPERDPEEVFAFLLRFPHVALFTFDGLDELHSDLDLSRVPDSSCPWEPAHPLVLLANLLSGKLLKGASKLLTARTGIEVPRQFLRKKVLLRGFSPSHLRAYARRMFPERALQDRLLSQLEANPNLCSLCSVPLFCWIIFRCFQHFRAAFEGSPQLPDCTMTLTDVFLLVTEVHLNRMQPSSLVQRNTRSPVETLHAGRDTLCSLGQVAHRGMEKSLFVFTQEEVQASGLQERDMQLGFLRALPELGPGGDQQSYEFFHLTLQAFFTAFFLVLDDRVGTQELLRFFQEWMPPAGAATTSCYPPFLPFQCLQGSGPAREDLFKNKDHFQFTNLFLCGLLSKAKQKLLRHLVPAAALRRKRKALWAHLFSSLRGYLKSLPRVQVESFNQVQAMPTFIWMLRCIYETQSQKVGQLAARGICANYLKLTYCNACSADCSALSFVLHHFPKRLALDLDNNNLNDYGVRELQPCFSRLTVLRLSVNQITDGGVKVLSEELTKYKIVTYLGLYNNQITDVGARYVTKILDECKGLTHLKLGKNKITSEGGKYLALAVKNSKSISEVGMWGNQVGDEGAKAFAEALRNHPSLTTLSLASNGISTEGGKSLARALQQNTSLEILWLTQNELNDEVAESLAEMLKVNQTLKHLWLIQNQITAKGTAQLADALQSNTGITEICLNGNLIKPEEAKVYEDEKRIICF

HEK293 [4] = test: inhibition of NOD1-driven NF-kB reporter – cell-based, luminescence, uHTS, primary screen (AID 1578); assay type: functional; conditions: Homo sapiens
HEK293 [5] = test: cells; assay type: functional, cell-based; conditions: Homo sapiens
[6] = reduction of Shn3 3'UTR-driven luciferase in osteoblasts – cell-based, Clone20 osteoblasts, firefly luciferase, cherry-picked, dose response (AID 624132); assay type: functional;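 further: firefly luciferase luminescence from reporter carrying the Shn3 3'UTR in osteoblasts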
[7] = loss of viability in HepG2 cells – cell-based, CellTiter-Glo, cherry-picked, cytotoxicity control for Shn3 inhibitor project, dose response (AID 624134); assay type: functional
Tumor necrosis factor = Tumor necrosis factor (Homo sapiens, UniProt P01375); test: analog potency on TNFa NF-kB signaling – cell-based, revised, SAR follow-up (AID 2337); assay type: functional
Sequence of Tumor necrosis factor (P01375 whole entry): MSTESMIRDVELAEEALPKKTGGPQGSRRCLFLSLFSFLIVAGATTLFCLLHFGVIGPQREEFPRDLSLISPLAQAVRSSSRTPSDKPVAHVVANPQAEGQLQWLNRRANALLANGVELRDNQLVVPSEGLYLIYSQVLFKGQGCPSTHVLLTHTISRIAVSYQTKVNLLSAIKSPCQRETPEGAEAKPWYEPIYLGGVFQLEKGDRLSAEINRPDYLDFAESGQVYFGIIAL

HEK293 [8] = test: cells; conditions: Homo sapiens
HEK293 [9] = test: cells; assay type: functional, cell-based; conditions: Homo sapiens; remark: listed apart in the source
[10] = target: T2, Type-1 angiotensin II receptor (Homo sapiens, UniProt P30556); test: antagonism of angiotensin II type 1 receptor – cell-based, uHTS hits, selectivity assay for APJ receptor antagonist project, dose response (AID 463214); assay type: functional;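 further: antagonist potency against angiotensin II stimulated AT1 response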
T2 sequence (P30556 whole entry): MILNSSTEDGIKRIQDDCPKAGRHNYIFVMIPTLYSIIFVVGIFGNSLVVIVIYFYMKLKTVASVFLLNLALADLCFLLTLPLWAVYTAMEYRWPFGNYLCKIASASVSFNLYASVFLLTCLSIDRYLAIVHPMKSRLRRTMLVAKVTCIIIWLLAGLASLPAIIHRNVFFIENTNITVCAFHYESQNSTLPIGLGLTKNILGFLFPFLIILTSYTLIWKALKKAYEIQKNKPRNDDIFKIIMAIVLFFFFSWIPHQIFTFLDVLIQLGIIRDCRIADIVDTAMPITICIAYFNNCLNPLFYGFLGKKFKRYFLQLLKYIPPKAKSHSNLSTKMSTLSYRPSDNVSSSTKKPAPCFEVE

Beta-galactosidase = Beta-galactosidase (Escherichia coli, UniProt Q8VNN2); test: PubChem AID 485352; assay type: functional
Sequence of Beta-galactosidase (Q8VNN2 whole entry): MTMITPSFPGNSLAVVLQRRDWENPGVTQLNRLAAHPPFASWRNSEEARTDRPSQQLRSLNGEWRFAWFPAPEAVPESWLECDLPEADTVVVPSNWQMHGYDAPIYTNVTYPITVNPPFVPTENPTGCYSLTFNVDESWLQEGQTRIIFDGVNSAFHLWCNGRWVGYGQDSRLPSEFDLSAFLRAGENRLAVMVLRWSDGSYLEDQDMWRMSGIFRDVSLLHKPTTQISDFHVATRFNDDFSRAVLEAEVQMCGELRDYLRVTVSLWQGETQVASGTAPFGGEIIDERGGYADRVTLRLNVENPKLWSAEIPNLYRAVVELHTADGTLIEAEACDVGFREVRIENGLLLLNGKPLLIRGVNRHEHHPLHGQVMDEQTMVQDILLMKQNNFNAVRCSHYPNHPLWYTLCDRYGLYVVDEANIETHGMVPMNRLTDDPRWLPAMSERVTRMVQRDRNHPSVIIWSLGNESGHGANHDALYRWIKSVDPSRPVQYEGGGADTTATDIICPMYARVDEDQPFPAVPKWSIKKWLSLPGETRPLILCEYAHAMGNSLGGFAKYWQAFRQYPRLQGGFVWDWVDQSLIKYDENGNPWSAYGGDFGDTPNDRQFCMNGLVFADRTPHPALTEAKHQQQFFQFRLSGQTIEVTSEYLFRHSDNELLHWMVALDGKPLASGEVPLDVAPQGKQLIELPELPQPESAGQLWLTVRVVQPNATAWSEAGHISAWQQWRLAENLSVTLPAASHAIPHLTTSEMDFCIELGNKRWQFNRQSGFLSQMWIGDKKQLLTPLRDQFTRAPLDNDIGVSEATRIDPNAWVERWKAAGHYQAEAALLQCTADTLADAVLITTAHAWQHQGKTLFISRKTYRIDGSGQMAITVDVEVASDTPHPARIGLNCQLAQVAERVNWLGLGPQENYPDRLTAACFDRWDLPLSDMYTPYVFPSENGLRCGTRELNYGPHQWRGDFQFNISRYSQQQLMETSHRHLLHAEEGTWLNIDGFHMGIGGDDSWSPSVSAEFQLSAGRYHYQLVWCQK

Cytochrome P450 3A4 = Cytochrome P450 3A4 (Homo sapiens, UniProt P08684);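 further: CYP3A4 tested as one member of a cytochrome P450 panel screen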
Sequence of Cytochrome P450 3A4 (P08684 whole entry): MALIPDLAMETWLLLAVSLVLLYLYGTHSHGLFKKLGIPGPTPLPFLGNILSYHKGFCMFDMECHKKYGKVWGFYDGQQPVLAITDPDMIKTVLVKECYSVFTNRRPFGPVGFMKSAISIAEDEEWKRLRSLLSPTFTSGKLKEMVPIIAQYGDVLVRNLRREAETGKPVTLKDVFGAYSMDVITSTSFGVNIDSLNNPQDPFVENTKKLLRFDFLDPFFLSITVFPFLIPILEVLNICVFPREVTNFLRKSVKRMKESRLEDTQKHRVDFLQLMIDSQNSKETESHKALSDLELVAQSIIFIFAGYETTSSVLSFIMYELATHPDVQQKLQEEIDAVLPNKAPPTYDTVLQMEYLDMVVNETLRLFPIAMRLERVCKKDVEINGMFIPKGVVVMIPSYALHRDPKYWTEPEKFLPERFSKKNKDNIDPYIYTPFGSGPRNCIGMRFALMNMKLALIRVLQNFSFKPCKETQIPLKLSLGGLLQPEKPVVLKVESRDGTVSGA

HeLa = test: ATP-based viability loss in HeLa cells – cell-based, CellTiter-Glo luminescence, cherry-pick samples, cytotoxicity control for MITF activator project, dose response (AID 540259); assay type: functional; conditions: Homo sapiens
SUMO-activating enzyme = SUMO-activating enzyme (Homo sapiens, UniProt Q9UBT2); test: blockers of UBC9-mediated SUMO conjugation – biochemical, AlphaScreen, SUMOylation inhibitor project, confirmation (AID 2018); assay type: functional
Sequence of SUMO-activating enzyme (Q9UBE0 whole entry): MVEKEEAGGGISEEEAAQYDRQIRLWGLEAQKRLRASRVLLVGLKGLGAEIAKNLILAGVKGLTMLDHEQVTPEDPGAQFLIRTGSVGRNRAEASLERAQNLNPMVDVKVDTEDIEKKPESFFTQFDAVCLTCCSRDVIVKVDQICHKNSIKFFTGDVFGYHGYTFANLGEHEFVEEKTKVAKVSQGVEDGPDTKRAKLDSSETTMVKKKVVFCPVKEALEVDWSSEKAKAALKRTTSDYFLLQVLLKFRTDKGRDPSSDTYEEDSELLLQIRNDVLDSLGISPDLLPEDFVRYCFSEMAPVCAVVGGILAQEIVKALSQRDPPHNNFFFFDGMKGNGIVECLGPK
Sequence of SUMO-activating enzyme (Q9UBT2 whole entry): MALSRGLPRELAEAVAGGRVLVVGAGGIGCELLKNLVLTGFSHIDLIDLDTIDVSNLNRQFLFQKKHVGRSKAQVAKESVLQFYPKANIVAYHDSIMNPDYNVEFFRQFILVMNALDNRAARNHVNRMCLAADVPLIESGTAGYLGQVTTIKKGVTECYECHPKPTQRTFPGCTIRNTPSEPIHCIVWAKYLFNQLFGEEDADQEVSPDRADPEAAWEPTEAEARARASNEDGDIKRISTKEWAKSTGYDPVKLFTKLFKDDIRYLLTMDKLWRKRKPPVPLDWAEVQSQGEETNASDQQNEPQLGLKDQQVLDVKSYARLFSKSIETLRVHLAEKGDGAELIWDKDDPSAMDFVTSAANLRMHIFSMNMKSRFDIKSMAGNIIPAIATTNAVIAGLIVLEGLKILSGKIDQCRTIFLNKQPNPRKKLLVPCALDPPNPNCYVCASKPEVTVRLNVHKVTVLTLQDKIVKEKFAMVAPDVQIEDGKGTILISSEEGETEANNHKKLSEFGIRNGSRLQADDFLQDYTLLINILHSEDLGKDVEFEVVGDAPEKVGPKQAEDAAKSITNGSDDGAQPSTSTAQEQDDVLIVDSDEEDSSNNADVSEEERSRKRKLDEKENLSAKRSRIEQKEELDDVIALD

SMILES: COCC1CCN(C(=O)c2cc(COc3ccc4ncccc4c3)on2)CC1
IC50 (HEK293 [1]): 14.8 µM (inactive) | AC50 [2]: 10.5 µM (active) | IC50 [3]: 3.13 µM (active) | EC50 (HEK293 [4]): 2.31 µM (active) | IC50 (HEK293 [5]): > 20 µM (inactive) | AC50 [6]: 2.7 µM (active) | AC50 [7]: 42.1 µM (active) | IC50 (Tumor necrosis factor): 4.81 µM (active) | IC50 (HEK293 [8]): > 20 µM (inactive) | IC50 (HEK293 [9]): 8.36 µM (active)

IC50 [10]: 9.04 µM (active) | EC50 (Beta-galactosidase): > 40 µM (inactive)
SMILES: Cc1ccc(OCCN2C(=O)c3ccccc3C2=O)c([N+](=O)[O-])c1

AC50 (Cytochrome P450 3A4): inconclusive
SMILES: O=C(c1cnccn1)N1CCC2(CC1)CCN(c1ncccn1)CC2

SMILES: CC/C(=N\NC(=O)c1csc(C)c1C)c1cccs1
AC50 (HeLa): > 350 µM (inactive)

IC50 (SUMO-activating enzyme): 49.7 µM (active)
SMILES: O=C(Nc1ccc(Br)cc1)c1ccc(N2C(=O)C3CC=C(Cl)CC3C2=O)cc1 (stereo not given)
